In test [1] the target is Heat shock protein HSP 90-alpha (Homo sapiens, UniProt P07900). Briefly: Inhibition of His-tagged N-terminal recombinant HSP90alpha (unknown origin) expressed in Escherichia coli BL21 (DE3) incubated for 4 hrs by fluorescence polarization based microplate reader assay.
The subject of test [2] is NCI-H1975. Briefly: Antiproliferative activity against human NCI-H1975 cells assessed as growth inhibition incubated upto 72 hrs by CellTiter96 Aqueous One Solution Cell Proliferation assay. In kind it is functional.
Test [3] has as its target T1, Protein deacetylase HDAC6 (Homo sapiens) (UniProt Q9UBN7).
T1 sequence (whole entry): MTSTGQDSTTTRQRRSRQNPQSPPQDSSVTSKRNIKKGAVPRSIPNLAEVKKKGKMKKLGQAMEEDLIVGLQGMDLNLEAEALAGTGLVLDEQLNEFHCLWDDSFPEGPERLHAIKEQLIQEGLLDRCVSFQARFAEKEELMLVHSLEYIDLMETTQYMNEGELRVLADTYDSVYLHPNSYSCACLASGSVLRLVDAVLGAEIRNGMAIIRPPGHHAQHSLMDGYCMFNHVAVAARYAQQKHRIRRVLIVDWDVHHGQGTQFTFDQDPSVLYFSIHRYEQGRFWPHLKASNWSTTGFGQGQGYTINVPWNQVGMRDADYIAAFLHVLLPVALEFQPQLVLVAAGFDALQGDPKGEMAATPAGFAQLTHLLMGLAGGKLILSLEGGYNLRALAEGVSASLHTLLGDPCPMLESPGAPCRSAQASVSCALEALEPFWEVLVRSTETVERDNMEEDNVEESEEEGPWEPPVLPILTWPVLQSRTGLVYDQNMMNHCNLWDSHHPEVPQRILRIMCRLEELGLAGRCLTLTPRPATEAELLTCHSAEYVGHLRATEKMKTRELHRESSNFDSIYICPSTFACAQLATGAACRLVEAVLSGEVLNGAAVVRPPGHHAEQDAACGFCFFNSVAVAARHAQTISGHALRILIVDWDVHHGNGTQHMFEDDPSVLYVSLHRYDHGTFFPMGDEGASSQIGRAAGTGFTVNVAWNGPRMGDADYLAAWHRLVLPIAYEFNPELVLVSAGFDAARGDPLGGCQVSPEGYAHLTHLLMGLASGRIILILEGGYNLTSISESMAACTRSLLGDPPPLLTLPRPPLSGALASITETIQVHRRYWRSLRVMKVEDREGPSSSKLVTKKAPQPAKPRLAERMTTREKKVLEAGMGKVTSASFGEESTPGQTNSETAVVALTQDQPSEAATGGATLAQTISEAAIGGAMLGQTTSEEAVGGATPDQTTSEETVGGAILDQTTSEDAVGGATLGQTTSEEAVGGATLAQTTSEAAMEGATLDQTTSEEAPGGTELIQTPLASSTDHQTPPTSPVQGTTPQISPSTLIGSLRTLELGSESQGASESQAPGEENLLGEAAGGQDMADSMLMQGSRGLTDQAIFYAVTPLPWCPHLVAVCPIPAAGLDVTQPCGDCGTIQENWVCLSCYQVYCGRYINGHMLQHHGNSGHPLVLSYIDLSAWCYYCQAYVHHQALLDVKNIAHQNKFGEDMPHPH
Briefly: Inhibition of HDAC6 in human NCI-H1975 cells assessed as increase in acetylation of HSP90-Lys 294 residue at 2 uM incubated for 24 hrs by western blot analysis. In kind it is cell-based.

For test [4], the target named is T2, Heat shock protein HSP90 (Homo sapiens) (UniProt P07900+P08238). Briefly: Inhibition of HSP90 in human NCI-H1975 cells assessed as downregulation of EGFR expression at 2 uM incubated for 24 hrs by western blot analysis. The class given is cell-based.
Test [5] has as its target T2, Heat shock protein HSP90 (Homo sapiens). Briefly: Inhibition of HSP90 in human NCI-H1975 cells assessed as downregulation of Her2 expression at 2 uM incubated for 24 hrs by western blot analysis. The class given is cell-based.
For test [6] the target is unchanged. Nature of the test: Inhibition of HSP90 in human NCI-H1975 cells assessed as downregulation of Akt expression at 2 uM incubated for 24 hrs by western blot analysis. In kind it is cell-based.
For test [7] the target is unchanged. Briefly: Inhibition of HSP90 in human NCI-H1975 cells assessed as upregulation of HSP70 expression at 2 uM incubated for 24 hrs by western blot analysis. The class given is cell-based.
For test [8] the target is unchanged. Nature of the test: Inhibition of HSP90 in human NCI-H1975 cells assessed as downregulation of Met expression at 2 uM incubated for 24 hrs by western blot analysis. The class given is cell-based.
Test [9] concerns the target T1, Protein deacetylase HDAC6 (Homo sapiens). Briefly: Inhibition of HDAC6 in human NCI-H1975 cells assessed as increase in acetylation of alpha tubulin at 1 uM incubated for 24 hrs by western blot analysis. The class given is cell-based.

Active and inactive are the calls of the source. The rule behind the calls is not given here.

Take `CCCN(Cc1ccc(C(=O)NO)cc1)C(=O)c1cc(Cl)c(O)cc1O`: the half-inhibitory concentration (IC50) in [1] was above 1 µM. The GI50 in test [2] amounted to 73.6 µM.

Take `CCCCN(Cc1ccc(C(=O)NO)cc1)C(=O)c1cc(C(C)C)c(O)cc1O`: the IC50 in test [1] was 0.367 µM. Further, the GI50 in [2] was 23.6 µM.

Regarding `CN(Cc1ccc(C(=O)NO)cc1)C(=O)c1cc(Cl)c(O)cc1O`, the IC50 in [1] was 0.608 µM. Besides, the GI50 in test [2] stood at 68.8 µM.

As for `CCCN(Cc1ccc(C(=O)NO)cc1)C(=O)c1cc(C(C)C)c(O)cc1O`, in test [1], the IC50 worked out at 0.648 µM. Moreover, in [2], the GI50 came to 23.7 µM.

As to `CCCCN(Cc1ccc(C(=O)NO)cc1)C(=O)c1cc(Cl)c(O)cc1O`, in test [1], the IC50 is 0.632 µM. Further, in test [2], the GI50 was found to be 66.4 µM.

As for `CN(Cc1ccc(C(=O)NO)cc1)C(=O)c1ccccc1`, the IC50 in test [1] was above 1 µM. Besides, the GI50 in test [2] turned out to be 8.2 µM.

With `COC(=O)c1ccc(CN(C)C(=O)c2cc(C(C)C)c(O)cc2O)cc1`, the inhibition entry in test [3], in test [4], in test [5], in test [6], in [7] and in test [8] was “Active” in each case. Also, in test [2], the GI50 stood at 3.5 µM.

Take `COC1=C2C[C@@H](C)C[C@H](OC)[C@H](O)[C@@H](C)/C=C(\C)[C@H](OC(N)=O)[C@@H](OC)/C=C\C=C(/C)C(=O)NC(=CC1=O)C2=O`: the inhibition entry in [9] is “Active”.

With `CCN(Cc1ccc(C(=O)NO)cc1)C(=O)c1cc(Cl)c(O)cc1O`, the IC50 in test [1] worked out at 0.693 µM. Moreover, the GI50 in [2] is 13.2 µM.

In the case of `CC(C)c1cc(C(=O)N(C)Cc2ccc(C(=O)O)cc2)c(O)cc1O`, the GI50 in [2] was found to be 30 µM.

Regarding `CCN(Cc1ccc(C(=O)NO)cc1)C(=O)c1cc(C(C)C)c(O)cc1O`, the IC50 in [1] was 0.22 µM. In test [2], the GI50 amounted to 7 µM.
